# Patent US5821252A, “Method of blocking nerve conduction by treatment with branched-chain esters of 2-[4-(2-piperidine-ethoxy)-benzoyl]-benzoic acid and pharmaceutically acceptable salts thereof” (priority 1988, dated 1998)
# Where two headings read alike, the source gives them in different places.
# Experiments:
# [1] = system: small intestine motility; assay: Small intestinal motility in the conscious dog, phase I and II activity; assay type: in vivo; details: for rank order of potency: spontaneous motility of small intestine, conscious dog
# Source text: (§1) Male dogs (THG Tierhandelsgesellschaft Rodenbach, Hoe: BEAK (Beagle)) weighing 15-20 kg were used in all experiments. At least 4 weeks prior to the experiment the dogs had been equipped with miniaturized strain gage force transducers (T1-T3) (2×4 mm), sutured onto the gut at the locations mentioned below. The cables of the transducers were embedded into a cannula which carried the plug for external electric connection. This stainless steel cannula was implanted into the abdominal wall, close below the costal arch. Each transducer was connected to a measuring bridge. The signals were on line stored using a HP 9835 A computer, allowing later analysis of the data.
# (§2) 18 hours prior to the experiment food was withdrawn from the animals, water ad libidum. All experiments started between 08:00 and 09:00 am.
# (§3) The following motility parameters were determined:
# The integral under the concentration curves at 10 min intervals (mN×10min) as an index of phase I+II activity. The duration of drug action (min.)
# (§4) The duration of the interdigestive migrating complex (IMC) (min) as a measure of phase III activity.
# (§5) Test Compound II was given at doses of 0.2 and 0.5 mg/kg i.v. or 5 mg/kg i.g., dissolved in saline, in a volume of 1 ml/kg (i.v.) or 2 ml/kg (i.g.), n=3-6. Control n=26.
# Reference substances: Buscopan, pitofenon.
# Buscopan was given at doses of 0.3 and 1 mg/kg i.v., dissolved in saline, in a volume of 1 ml/kg, n=4-6. Pitofenone was given at doses of 1 mg/kg i.v., dissolved in saline, in a volume of 1 ml/kg, n=8.
# 1D50 -values were determined graphically.
# [2] = system: colonic motility; assay: Motility of the large bowel (colonic motor complex) in conscious dogs; assay type: in vivo, dog
# Source text: Male dogs (THG Tierhandelsgesellschaft Rodenbach, Hoe:BEAK (Beagle)) weighing 15-20 kg were used in all experiments.
# as §1, with “At” for “Male dogs (THG Tierhandelsgesellschaft Rodenbach, Hoe: BEAK (Beagle)) weighing 15-20 kg were used in all experiments. At”, “prior” for “prior to”, “(T1-T2)” for “(T1-T3)”, “on-line” for “on line”, “computer, thereby” for “computer,”
# T1: Colon ascendens 10 cm aborafrom the ileoceval valve (ICV)
# T2: Colon transversum 25 cm aborad from the ICV
# 18 hours prior to the experiment food was withdrawn from the animals, water ad libidum All experiments started between 08:00 and 09:00 am.
# The following parameters were determined:
# The duration of the cycle (min)
# The duration of the colonic motor complex (CMC) (min)
# The maximal height of the concentrations (AU: arbitrary units)
# Data from the two recording sites (T1-T2) were pooled. […]
# Statistical methods: For detection of significant differences (p<0.05) the unpaired t-test was used. Only significant differences were indicated by *.
# [3] = system: sciatic nerve; assay: Conduction block anaesthesia in the rat, injection near sciatic nerve; assay type: in vivo; details: for blockade of nerve conduction: injected near the sciatic nerve, hydrochloride
# Protocol: Conduction block anaesthesia was produced in the rat using compound II [(Isopropyl 2-(4-2-piperidinoethoxy)-benzoyl)benzoate hydrochloride] according to the method of Traunt. (Traunt, A. P. Arch. Int. Phamacodyn. 115:483-497,1957).
# The conduction block produced was of long duration and required a number of days for complete recovery. A dose of 20 mg/kg compound II blocked nerve conduction in the rat for about 33 days. Ten mg/kg of compound II blocked the nerve for 18±2 days (n=25). In comparison, 10 mg/kg of lignocaine, a standard local anesthetic, produced conduction block for only 0.086±0.01 days (n-10). […] This long lasting but reversible blockade of nerve conduction is of significant interest in the treatment of cancers, neuralgias and post-surgical states.
# [4] = system: Porcine liver esterase; assay: Enzymatic hydrolysis rates by porcine liver esterase; assay type: in vitro ADME; details: 1 mM, pH 8.0, 37° C.
# Protocol: Porcine liver esterase (0.5 U=2 μg) was preincubated in 40 mM Tris-HCl buffer, pH 8.0, at 37° C. for 5 min. The reaction was initiated with the addition of the test compound (final concentration, 1 mM) in the final volume of 250 μl. Enzyme reaction was terminated at different time intervals by the addition of 60 μl of 1M acetic acid. The solution was made alkaline (pH 10.5) by adding 0.4M NaOH and the alkaline solution was rapidly extracted (three times) with 2.5 ml of chloroform. An aliquot of the aqueous supernatant was diluted with double distilled water and the absorbance was measured at 290 nm. Amount of test compound III (molar extinction=14,400) formed was calculated.
# [5] = system: Guinea pig ileum; assay: Antispasmodic activity in isolated guinea pig ileum (acetylcholine contraction); assay type: cell-based; details: for Duration of action: isolated guinea pig ileum
# Protocol: Small intestines obtained from freshly sacrificed guinea pigs (weight range, 200-400 g) of either sex were cleaned and stored in tyrode solution. A piece of ileum was mounted in an organ bath containing tyrode solution at 37° C. and maintained at a tension of 0.5 to 1.0 g. The solution was continuously aerated with compressed air. After an initial equilibration period, a sub-maximal dose of acetylcholine required for measurable contraction was standardized. Tension changes were monitored using an isotonic strain gauge attached to the tissue and the responses were recorded on a strip chart recorder. Antispasmodic activity of test compounds at different concentrations was followed and the IC50, values were calculated from dose response curves.
# [6] = cited from earlier work
# [7] = system: small intestine motility; assay: Small intestinal motility in the conscious dog, phase III activity, intragastrical; assay type: in vivo; details: 5 mg/kg intragastrically
# Source text: as §1, §2, §3, §4, §5
μmol test compound III formed per mg protein per ml ([4]; time 0.0 hours),μmol test compound III formed per mg protein per ml ([4]; time 0.5 hours),μmol test compound III formed per mg protein per ml ([4]; time 2.0 hours),μmol test compound III formed per mg protein per ml ([4]; time 3.5 hours),Compound,rank order of potency [1],duration of nerve conduction block ([3]; 10 mg/kg near sciatic nerve),Duration of action [5],also measured
,,,,CCCC[N+]1(C)[C@@H]2C[C@@H](OC(=O)[C@H](CO)c3ccccc3)C[C@H]1[C@@H]1O[C@@H]12 (some centres unmarked) [Buscopan],Test Compound II>buscopan>pitofenon,,,"Duration of action ([1]; 1 mg/kg i.v., until postdrug values reached 90% or more of predrug): 30 min; Max. height of CMC ([2]; 3 mg/kg intragastrically): 35 ± 17 AU; effect on colonic motility ([2]; 3 and 10 mg/kg i.g.): no effect on colonic motility"
,,,,CCN(CC)CC(=O)Nc1c(C)cccc1C [lignocaine],,0.086 ± 0.01 days,,
0.00 μmol per mg protein per ml,0.50 μmol per mg protein per ml,1.62 μmol per mg protein per ml,2.78 μmol per mg protein per ml,"COC(=O)c1ccccc1C(=O)c1ccc(OCCN2CCCCC2)cc1.Cl [Test compound I, Methyl-2-[4-(2-piperidino-ethoxy)-benzoyl]-benzoate hydrochloride]",Test Compound II>buscopan>pitofenon,,< 1.5 min,"IC50 ([5]; Cavia porcellus, acetylcholine contraction, isolated ileum, 37° C.): 1 µg/mL; antispasmodic activity ([6]; administered intravenously): potent antispasmodic activity; antispasmodic activity ([6]; administered orally): considerably reduced; metabolism of methyl ester to the corresponding acid ([6]; oral): rapid metabolism of the methyl ester to the corresponding acid"
0.00 μmol per mg protein per ml,0.05 μmol per mg protein per ml,0.10 μmol per mg protein per ml,0.10 μmol per mg protein per ml,"CC(C)OC(=O)c1ccccc1C(=O)c1ccc(OCCN2CCCCC2)cc1.Cl [Test compound II, Isopropyl-2-[4-(2-piperidino-ethoxy)-benzoyl]-benzoate hydrochloride]",Test Compound II>buscopan>pitofenon,18 ± 2 days,> 7.0 min,duration of inhibitory effect ([1]; 0.5 mg/kg i.v.): approximately one; inhibition of phase III activity [7]: a pronounced inhibition of phase III activity; effect on colonic motility ([2]; 1 mg/kg i.g.): uneffective; inhibition of colonic motility ([2]; 4 mg/kg i.g. (so in the source)): inhibited colonic motility (CMC in the conscious dog completely; duration of nerve conduction block ([3]; 20 mg/kg near sciatic nerve): about 33 days; blockade of nerve conduction ([3]; listed as Compound II): dose-dependent blockade of nerve conduction; blockade of nerve conduction ([3]; listed as compound II): reversible blockade of nerve conduction lasting for hours to days
